Laboratory results taken from paper PMC6968641, “N-monoarylacetothioureas as potent urease inhibitors: synthesis, SAR, and biological evaluation” (Journal of Enzyme Inhibition and Medicinal Chemistry, 2019).
Values after ≈ are worked out from the molar mass of the structure shown. Read-outs that look alike come from different tables or passages of the source.

How the values were obtained:
[1] = biological target: T1, urease in intact H. pylori cell (Helicobacter pylori, UniProt P69996); test: Urease inhibition in intact H. pylori cell (indophenol method); type: cell-based
T1 construct: H. pylori urease was replaced by 25 µL of cell suspension (4.0 × 10^7 CFU/mL); endogenous in cells; host or cells: intact H. pylori ATCC 43504 cells

Jack bean urease [2] = biological target: T2, Jack bean urease (Canavalia ensiformis, UniProt P07374); test: Ligand affinity by surface plasmon resonance (SPR); type: binding; conditions: for kon: pH 7.4; for koff: immobilised urease, PBS pH 7.4
T2 construct: purchased
Protocol: The binding kinetics of selected compounds were assayed via surface plasmon resonance (SPR) using an OPEN SPR instrument (Nicoya Lifesciences, Kitchener, Canada). First, urease dissolved (50 µg/mL) in PBS buffer (1 mM KH2PO4, 155 mM NaCl, 3 mM Na2HPO4-12H2O, pH 7.4), was immobilised to a CM5 chip using a standard amine coupling procedure. Then, SPR measurements were carried out in PBS, and stock solutions were diluted in the same buffer. Data were collected with OpenSPR control software. Experiments were performed by monitoring the refractive index changes as a function of time under constant flow rate of 20 µL/min. The relative amount of inhibitor bound to the urease was determined by measuring the net increase in refractive index over time compared to control running buffer. There is an inline subtraction of reference surface during the run. This change is usually reported in response units (RU). Sensograms were processed and analysed using TraceDrawer software. The binding curves were fit to determine the equilibrium dissociation constant (KD).
In the present paper, the pure Jack bean urease from commercial was used for this assay because of non-availability of pure H. pylori urease. […] For efficient and tight ligand binding, the rate constant koff is of particular interest, because koff has a potential to differentiate indistinguishable compounds with similar affinities.

H. pylori urease = biological target: T3, H. pylori urease (Helicobacter pylori, UniProt P69996); test: Urease inhibition, extracted H. pylori urease (indophenol method); type: biochemical; conditions: for IC50: IC50 Extracted urease, extracted H. pylori urease
T3 construct: endogenous in cells; host or cells: H. pylori ATCC 43504; sonicated, supernatant desalted on Sephadex G-25 (crude extract)
Protocol: For urease inhibition assays, 50 mL broth cultures (2.0 × 10^8 CFU/mL) were centrifuged (5000×g, 4 °C) to collect the bacteria, and after washing twice with phosphate-buffered saline (pH 7.4), the H. pylori precipitation was stored at –80 °C for 8 h, and then was returned to room temperature, and after addition of 3 mL of distilled water and protease inhibitors, sonication was performed for 60 s. Following centrifugation (15,000×g, 4 °C), the supernatant was desalted through Sephadex G-25 column (PD-10 columns, Amersham Pharmacia Biotech, Uppsala, Sweden). The resultant crude urease solution was added to an equal volume of glycerol and stored at 4 °C until use in the experiment.
Urease activity was determined in the 96-well assay plate by measuring ammonia production using the indophenol method as described by Weatherburn[20]. Briefly, to each well, 50 µL of urea (10 mM) in phosphate buffer solution was added in a mixture of 25 µL (10 U) of H. pylori urease and 25 µL of the test compound, which was incubated at 37 °C for 0.5 h. Fifty µL of phenol reagent (containing 127 mM phenol and 0.168 mM sodium nitroprusside) and 50 µL of alkali reagent (containing 125 mM NaOH and 0.168 mM NaOCl) were added in turn. The resulted mixture was incubated at 37 °C for another 0.5 h for colouration developing. The increasing absorbance was measured at 630 nm after 50 min using a microplate reader (Molecular Devices, San Jose, CA). Percentage inhibitions were calculated from the following formula (Equation (1)). Experiments were performed in triplicate and AHA was used as reference drug, and the IC50 value was determined as the concentration of compound that give 50% inhibition of maximal activity. As for the urease assay of intact cells, 25 µL (10 U) of H. pylori urease was replaced by 25 µL of cell suspension (4.0 × 10^7 CFU/mL).

Jack bean urease [3] = biological target: T2, Jack bean urease; test: Enzyme kinetic study (indophenol method); type: biochemical; conditions: for Type of inhibition: Jack bean urease; for Ki': dissociation constant of urease-urea-inhibitor complex
Protocol: Based on the indophenol method, the velocity of ammonia production (V) was measured in the presence of concentration gradients of urea ([S]) for every specific concentration of selected compounds ([I]). Nonlinear fitting curves to data of V and [S] were used to determine the type of enzyme inhibition based on the general kinetics equation (Equation (1)). Subsequently, the resulted fitting constants ( Km/Vmax(1+[I]/Ki) or 1/Vmax(1+[I]/Ki′) ) and [I] were linearly fitted to give kinetic parameters Ki and Ki', respectively. The experimental assay was performed against a pure urease (Jack bean urease) for the consideration of precision. (1) V=Vmax[S]/Km(1+[I]/Ki)+(1+[I]/K^′i)[S]
Mazzei et al. confirmed that urease shared the mechanism of catalysis and inhibition regardless of the biological sources[27]^,[28]. For excluding the possible interference, a pure urease (Jack bean urease) was therefore used for kinetic assays. As an example, Figure 2 describes the preincubation-time dependence of urease inhibition by b19. The suppressed urease activity maintained at relatively constant values with the increasing preincubation time under different concentrations of b19, resulting in nearly equal IC50 values.
Similarly, kinetic parameters ( Ki and Ki' ) and inhibition types of other compounds were also determined and are shown in Table 3.

[4] = Cytotoxicity MTT assay, L-02; type: cell-based; conditions: human, L-02 cells (normal hepatic cell line), 25 μg/mL
Protocol: (§1) The stock solutions of the selected compounds (250 µg/mL, in PBS) were prepared in medium. L-02 cells and P69 cells were grown in medium (90% RPMI-1640 medium, 10% foetal bovine serum, 1% penicillin/streptomycin) and maintained at 37 °C in a humidified atmosphere containing 5% CO2, respectively. Cells were seeded in 96-well cell culture plates. On the day when seeding, the cells were exposed to 250 µg/mL of compounds and further cultured for 72 h at 37 °C. Cell proliferation was then determined using the thiazolyl blue tetrazolium bromide (MTT) assay.

H. pylori = test: Minimum inhibitory concentration, broth microdilution (CLSI); type: cell-based, Helicobacter pylori (ATCC 43504); conditions: Helicobacter pylori
Protocol: H. pylori (ATCC 43504; […] The minimum inhibitory concentration (MIC) values were determined using the broth microdilution protocol according to the methods of the Clinical and Laboratory Standards Institute (CLSI)[21].

[5] = Cytotoxicity MTT assay, P69; type: cell-based; conditions: human, P69 cells (normal prostate cell line), 25 μg/mL
Protocol: as §1

T3 sequence (P14916 whole entry): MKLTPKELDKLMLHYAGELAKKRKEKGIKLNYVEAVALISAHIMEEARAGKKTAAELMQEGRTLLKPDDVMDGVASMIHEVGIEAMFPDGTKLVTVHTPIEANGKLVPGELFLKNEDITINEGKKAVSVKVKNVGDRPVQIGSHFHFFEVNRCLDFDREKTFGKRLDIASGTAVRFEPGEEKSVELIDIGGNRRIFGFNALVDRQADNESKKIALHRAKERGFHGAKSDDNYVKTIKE
T3 sequence (P69996 whole entry): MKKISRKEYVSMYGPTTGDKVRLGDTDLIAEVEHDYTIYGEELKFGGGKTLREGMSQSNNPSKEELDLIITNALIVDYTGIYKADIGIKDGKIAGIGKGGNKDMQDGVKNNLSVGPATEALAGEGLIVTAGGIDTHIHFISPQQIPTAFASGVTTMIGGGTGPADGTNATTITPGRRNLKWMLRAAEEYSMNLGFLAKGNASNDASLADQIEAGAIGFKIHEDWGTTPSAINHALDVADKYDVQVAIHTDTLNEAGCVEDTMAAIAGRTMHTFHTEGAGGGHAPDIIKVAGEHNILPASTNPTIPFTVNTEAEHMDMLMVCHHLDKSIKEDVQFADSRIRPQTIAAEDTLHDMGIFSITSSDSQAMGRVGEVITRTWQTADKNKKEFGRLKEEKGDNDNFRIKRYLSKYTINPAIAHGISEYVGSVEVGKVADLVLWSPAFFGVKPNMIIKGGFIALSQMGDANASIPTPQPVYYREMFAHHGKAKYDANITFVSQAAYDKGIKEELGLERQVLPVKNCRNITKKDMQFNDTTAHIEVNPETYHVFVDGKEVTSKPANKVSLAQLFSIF
T2 sequence (P07374 whole entry, looked up): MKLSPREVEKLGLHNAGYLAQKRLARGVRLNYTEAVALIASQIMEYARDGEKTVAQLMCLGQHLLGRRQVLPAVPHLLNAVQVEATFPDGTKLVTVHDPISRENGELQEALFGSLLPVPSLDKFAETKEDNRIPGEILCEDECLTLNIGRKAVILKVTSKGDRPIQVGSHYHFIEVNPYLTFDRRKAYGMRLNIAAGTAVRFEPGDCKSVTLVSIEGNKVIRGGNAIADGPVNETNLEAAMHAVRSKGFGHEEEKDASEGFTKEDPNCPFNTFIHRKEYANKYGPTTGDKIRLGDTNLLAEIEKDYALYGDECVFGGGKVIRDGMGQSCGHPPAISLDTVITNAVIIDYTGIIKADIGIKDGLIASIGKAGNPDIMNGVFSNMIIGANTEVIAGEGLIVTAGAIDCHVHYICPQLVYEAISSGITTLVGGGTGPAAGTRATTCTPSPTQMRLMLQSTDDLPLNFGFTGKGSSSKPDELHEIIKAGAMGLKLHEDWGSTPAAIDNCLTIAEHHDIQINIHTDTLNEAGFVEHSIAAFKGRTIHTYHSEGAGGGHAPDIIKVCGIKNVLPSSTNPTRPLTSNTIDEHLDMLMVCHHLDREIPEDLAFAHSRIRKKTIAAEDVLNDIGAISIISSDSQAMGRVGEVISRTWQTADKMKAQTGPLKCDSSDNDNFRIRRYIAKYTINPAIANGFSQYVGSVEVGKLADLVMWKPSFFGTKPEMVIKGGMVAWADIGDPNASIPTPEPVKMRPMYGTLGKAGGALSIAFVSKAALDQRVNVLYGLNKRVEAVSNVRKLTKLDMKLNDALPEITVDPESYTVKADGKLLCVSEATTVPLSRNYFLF
T1 sequence (P69996 whole entry): as the sequence (P69996 whole entry) above
T1 sequence (P14916 whole entry, further chain): as the sequence (P14916 whole entry) above

COc1ccc(CC(=O)NC(N)=S)cc1 [b11]
IC50 [1]: 98.3 ± 5.9 µM | Kd (Jack bean urease [2]): 0.667 ± 0.0137 µM | kon (Jack bean urease [2]): 572000 M⁻¹ s⁻¹ | koff (Jack bean urease [2]; pH 7.4, SPR): 0.0381 s⁻¹ | IC50 (H. pylori urease): 16.3 ± 1.2 µM | melting point: 143.5 to 144.7 °C | Ki (Jack bean urease [3]): 3.94 µM | Type of inhibition (Jack bean urease [3]): Reversible | Ki' (Jack bean urease [3]): 12.7 µM | viability at 72 h, 25 µg/mL [4]: 97% | MIC (H. pylori; pH=4.0, read-out: MIC pH=4.0): 32 µM (≈ 7.18 µg/mL) | MIC (H. pylori; pH=7.0, read-out: MIC pH=7.0): > 64 µM | viability at 72 h, 25 µg/mL [5]: 87.5%

NC(=S)NC(=O)Cc1ccc(F)cc1 [b23]
IC50 [1]: 93.6 ± 5.5 µM | Kd (Jack bean urease [2]): 0.569 ± 0.0216 µM | kon (Jack bean urease [2]): 54300 M⁻¹ s⁻¹ | koff (Jack bean urease [2]; pH 7.4, SPR): 0.0309 s⁻¹ | IC50 (H. pylori urease): 14.6 ± 1 µM | melting point: 165.4 to 166.5 °C | Ki (Jack bean urease [3]): 3.53 µM | Type of inhibition (Jack bean urease [3]): Reversible | Ki' (Jack bean urease [3]): 9.67 µM | viability at 72 h, 25 µg/mL [4]: 96.1% | MIC (H. pylori; pH=4.0, read-out: MIC pH=4.0): 8 µM (≈ 1.7 µg/mL) | MIC (H. pylori; pH=7.0, read-out: MIC pH=7.0): > 64 µM | viability at 72 h, 25 µg/mL [5]: 97.6%

NC(=S)NC(=O)Cc1ccc2ccccc2c1 [b24]
melting point: 202.6 to 204.4 °C

NC(=S)NC(=O)Cc1ccc(Cl)cc1 [b19]
IC50 [1]: 3.86 ± 0.1 µM | fold more potent than AHA, urease in intact cell ([1]; ratio of IC50 values vs AHA): 44 fold | Kd (Jack bean urease [2]): 0.0045 ± 0.00016 µM | koff (Jack bean urease [2]; SPR): 1.73 × 10^–3 ± 2.57 × 10^–5 s^–1 | kon (Jack bean urease [2]): 3.82e+06 M⁻¹ s⁻¹ | koff (Jack bean urease [2]; pH 7.4, SPR): 0.0016 s⁻¹ | IC50 (H. pylori urease): 0.16 ± 0.05 µM | fold more potent than AHA, extracted urease (H. pylori urease; ratio of IC50 values vs AHA): 170 fold | melting point: 184.1 to 186.6 °C | Ki (Jack bean urease [3]): 0.04 µM | Type of inhibition (Jack bean urease [3]): Reversible | preincubation-time dependence of urease inhibition (Jack bean urease [3]; different preincubation times and concentrations): time-independent | Ki' (Jack bean urease [3]): 0.16 µM | inhibition mechanism (Jack bean urease [3]; from Ki and Ki'): mixed competitive | viability at 72 h, 25 µg/mL [4]: > 93% | MIC (H. pylori; pH=4.0, read-out: MIC pH=4.0): 0.5 µM (≈ 0.114 µg/mL) | MIC (H. pylori; pH=7.0, read-out: MIC pH=7.0): 32 µM (≈ 7.32 µg/mL) | viability at 72 h, 25 µg/mL [5]: > 93%

NC(=S)NC(=O)Cc1ccc(O)cc1 [b8]
IC50 [1]: 52.5 ± 3.9 µM | Kd (Jack bean urease [2]): 0.311 ± 0.0103 µM | kon (Jack bean urease [2]): 9.38e+06 M⁻¹ s⁻¹ | koff (Jack bean urease [2]; pH 7.4, SPR): 0.00292 s⁻¹ | IC50 (H. pylori urease): 9.93 ± 0.9 µM | melting point: 177.1 to 178.3 °C | Ki (Jack bean urease [3]): 2.54 µM | Type of inhibition (Jack bean urease [3]): Reversible | Ki' (Jack bean urease [3]): 11.3 µM | viability at 72 h, 25 µg/mL [4]: 92.1% | MIC (H. pylori; pH=4.0, read-out: MIC pH=4.0): 8 µM (≈ 1.68 µg/mL) | MIC (H. pylori; pH=7.0, read-out: MIC pH=7.0): 64 µM (≈ 13.5 µg/mL) | viability at 72 h, 25 µg/mL [5]: 94.6%

NC(=S)NC(=O)Cc1ccc([N+](=O)[O-])cc1 [b22]
IC50 (H. pylori urease): 155 ± 16 µM | melting point: 199.1 to 200.9 °C

NC(=S)NC(=O)Cc1cccc(Cl)c1 [b7]
IC50 (H. pylori urease): 63.6 ± 5.1 µM | fold decrease in potency relative to b19, extracted urease (H. pylori urease; ratio of IC50 values vs b19): 397 fold | melting point: 136.6 to 137.4 °C

NC(=S)NC(=O)Cc1ccc(Cl)cc1Cl [b21]
IC50 (H. pylori urease): 67.7 ± 4.3 µM | melting point: 166.6 to 167.2 °C

NC(=S)NC(=O)Cc1cccc2ccccc12 [b27]
melting point: 195.5 to 197.9 °C

COc1cccc(CC(=O)NC(N)=S)c1 [b5]
IC50 (H. pylori urease): 75.8 ± 5.7 µM | melting point: 184.5 to 186.1 °C

Cc1ccccc1CC(=O)NC(N)=S [b18]
IC50 (H. pylori urease): 46.2 ± 1.8 µM | melting point: 135.6 to 137.1 °C

NC(=S)NC(=O)Cc1ccccc1F [b6]
IC50 (H. pylori urease): 41.9 ± 2.5 µM | melting point: 157.2 to 159 °C

NC(=S)NC(=O)Cc1cccc(Br)c1 [b2]
IC50 (H. pylori urease): 58.4 ± 4.3 µM | melting point: 207.4 to 208.8 °C

NC(=S)NC(=O)Cc1ccccc1Br [b15]
IC50 (H. pylori urease): 51.1 ± 4.4 µM | melting point: 179 to 179.5 °C
